# Measured values from patent US9562035B2, “Benzamide derivative useful as FASN inhibitors for the treatment of cancer” (Janssen Pharmaceutica NV, priority 2013, dated 2017).
# What was measured:
# [1] = biological target: T1, hFASN enzyme (full length) (Homo sapiens, UniProt P49327); test: Fatty Acid Synthase (FASN) Inhibition Scintillation Proximity Assay; format: biochemical; settings: for IC50: mean where tested more than once, ~ = standard error of pIC50 larger than 0.5; for inhibition at 10 µM: read-out: FASN % Effect @1E−05M
# T1 construct: 10 μL hFASN enzyme (full length, 300 ng, purified in house); made in house
# Outline: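 Eight compound concentrations (0.01–30 μM) tested in pH 7.5 phosphate buffer with DTT; human full-length enzyme converted [3H]-acetyl-CoA plus malonyl-CoA, with NADPH, over 60 min at room temperature. Hydrophobic [3H]-palmitate detected by bead proximity scintillation imaging; control-normalised data fitted for IC50/pIC50.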
# [2] = biological target: T2, FASN Keto-reductase Domain (Homo sapiens, UniProt P49327); test: Fatty Acid Synthase Keto-Reductase Domain (FASN KR) Inhibition; format: biochemical; settings: mean where tested more than once; read-out: FASN K-R Domain pIC50 (converted)
# T2 construct: 10 μL hFASN enzyme (full length, 300 ng, purified in house) and 360 μM NADPH; made in house
# Outline: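 Keto-reductase activity followed as NADPH consumption (A340 drop between 0 and 20 min, room temperature) using in-house full-length hFASN, 360 μM NADPH and ethyl acetoacetate substrate (180 mM stock), pH 7.5 phosphate buffer.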
# A2780 ovarian cells [3] = test: A2780 Ovarian Cell Proliferation Assay in Lipid Reduced Medium, without Palmitate; format: cell-based; settings: Homo sapiens, A2780; lipid reduced medium, without palmitate, 96 h, MTT; read-out: Proliferation A2780 w/o Palmitate pIC50 (converted)
# Outline: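 A2780 cells were seeded in 10% FCS medium and switched next day to 10% lipid-reduced serum without palmitate. Compounds at 0.01–30 μM were added with 0.2% DMSO, 0.2% fatty-acid-free BSA and 0.25% ethanol final. After 96 h, MTT absorbance at 544 nm was normalized to plate controls, and IC50/pIC50 came from a 4-parameter logistic fit.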
# A2780 ovarian cells [4] = test: A2780 Ovarian Cell Proliferation Assay in Lipid Reduced Medium, with Palmitate (control); format: cell-based; settings: Homo sapiens, A2780; lipid reduced medium, 25 μM palmitate, 96 h, MTT; read-out: Proliferation A2780 with Palmitate pIC50 (converted)
# Outline: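 Read-out was MTT absorbance at 544 nm after 96 h at 37 °C. Cells grown overnight in RPMI1640/10% FCS were moved to 10% lipid-reduced serum with compound plus palmitate (final 25 μM, 0.2% fatty-acid-free BSA, 0.2% DMSO). IC50 came from least-squares curve fitting, expressed as −log(IC50).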
# [5] = tested on: LNCaP_Vancouver prostate cells; test: In Vitro LNCaP Vancouver Prostate Cell Proliferation Assay in Lipid Reduced Medium; format: cell-based; settings: lipid reduced serum, 96 h, read-out: Vancouver Cells pIC50 (converted)
# Experimental: LNCaP_Vancouver prostate cells were obtained from the Vancouver Prostate Cancer Centre. Cells were maintained in RPMI-1640, 10% Fetal Calf Serum (FCS, Hyclone), 2 mM glutamine and 50 μg/ml Gentamicin.
# For the proliferation experiment 1500 LNCaP_Vancouver cells per well were seeded in a 384-well black with clear bottom plate (costar 3712BC) in 40 μl RPMI-1640, 10% Lipid reduced serum (LRS, Hyclone), 50 μg/ml Gentamicin and 2 mM Glutamine and incubated at 37° C., 5% CO2. The next day 10 μl of test compound/DMSO diluted in medium was added (3E-5M, 1E-5M, 3E-6M, 1E-6M, 3E-7M, 1E-7M, 3E-8M, 1E-8M final concentration). Compounds were tested in duplicate. After 96 h incubation at 37° C., 5% CO2 25 μl ATP-glow mix was added. The plate was incubated for 30 min at 37° C. and luminescence was measured with the Envision.
# (§1) pIC50 values were calculated as follows. Raw data generated by the instruments were normalized to % Controlmin values, which were calculated as: % Controlmin=100*(x−mLC)/(mHC−mLC),
# (§2) where mLC and mHC are the means of the low control wells and high control wells on the plate, after manual exclusion of outliers. The relation between the % Controlmin values and concentration was fitted to a 4-parameter logistic curve using a non-linear least squares regression method to determine the pIC50 value. Outlying data points were excluded manually to get a correct fit. The pIC50 corresponds to −log 10(IC50), if the IC50 is expressed in molar units (http://www.ncbi.nlm.nih.gov/books/NBK91994). The IC50 parameter was always determined by non-linear regression, but one or more of the other parameters may have been held fixed on a relevant input value, such as 0 for the bottom values.
# (§3) For dose response curves with FASN inhibitors in LNCaP_Vancouver or PC-3M-Luc_C6 cells the curves bottom out around 30 to 40% of the control value. A standard fit PL2, forcing the lower bound to this level was used.
# (§4) Representative compounds of the present invention were tested according to the procedure as described in Biological Example 4a and 4b above, with results as listed in Table BIO-4, below.
# [6] = tested on: PC-3M-Luc-C6 prostate cells; test: In Vitro PC-3M-Luc-C6 Prostate Cell Proliferation Assay in Lipid Reduced Medium; format: cell-based; settings: read-out: PC-3M-Luc-C6 Cells pIC50 (μM) (converted), lipid reduced serum, 96 h
# Experimental: PC-3M-Luc-C6 prostate cells were obtained from Xenogen Corporation. Cells were maintained in MEM supplemented with 10% Fetal Calf Serum (FCS, Hyclone), 2 mM glutamine, 1 mM sodium pyruvate, 1% BME vitamins (available from for example, Sigma Aldrich), 0.1 mM non Essential Amino Acid and 50 μg/ml Gentamicin. The cells were passaged twice a week.
# 1000 PC-3M-Luc-C6 prostate cells (Xenogen) were seeded in a 384-well black with clear bottom plate (costar 3712BC) in 40 μl MEM, 10% LRS (Hyclo ne), 50 μg/ml Gentamicin, 2 mM Glutamine, 1 mM Sodium pyruvaat, 1% BME vitamins and 0.1 mM non Essential Amino Acid and incubated at 37° C., 5% CO2. The next day 10 μl test compound/DMSO diluted in medium was added (3E-5M, 1E-5M, 3E-6M, 1E-6M, 3E-7M, 1E-7M, 3E-8M, 1E-8M final concentration). Compounds were tested in duplicate. After 96 h incubation at 37° C., 5% CO2 25 μl ATP-glow mix was added. The plate was incubated for 30 min at 37° C. and luminescence was measured with the Envision.
# as §1, §2, §3, §4
# T2 sequence (P49327 whole entry, the tested form may be a part): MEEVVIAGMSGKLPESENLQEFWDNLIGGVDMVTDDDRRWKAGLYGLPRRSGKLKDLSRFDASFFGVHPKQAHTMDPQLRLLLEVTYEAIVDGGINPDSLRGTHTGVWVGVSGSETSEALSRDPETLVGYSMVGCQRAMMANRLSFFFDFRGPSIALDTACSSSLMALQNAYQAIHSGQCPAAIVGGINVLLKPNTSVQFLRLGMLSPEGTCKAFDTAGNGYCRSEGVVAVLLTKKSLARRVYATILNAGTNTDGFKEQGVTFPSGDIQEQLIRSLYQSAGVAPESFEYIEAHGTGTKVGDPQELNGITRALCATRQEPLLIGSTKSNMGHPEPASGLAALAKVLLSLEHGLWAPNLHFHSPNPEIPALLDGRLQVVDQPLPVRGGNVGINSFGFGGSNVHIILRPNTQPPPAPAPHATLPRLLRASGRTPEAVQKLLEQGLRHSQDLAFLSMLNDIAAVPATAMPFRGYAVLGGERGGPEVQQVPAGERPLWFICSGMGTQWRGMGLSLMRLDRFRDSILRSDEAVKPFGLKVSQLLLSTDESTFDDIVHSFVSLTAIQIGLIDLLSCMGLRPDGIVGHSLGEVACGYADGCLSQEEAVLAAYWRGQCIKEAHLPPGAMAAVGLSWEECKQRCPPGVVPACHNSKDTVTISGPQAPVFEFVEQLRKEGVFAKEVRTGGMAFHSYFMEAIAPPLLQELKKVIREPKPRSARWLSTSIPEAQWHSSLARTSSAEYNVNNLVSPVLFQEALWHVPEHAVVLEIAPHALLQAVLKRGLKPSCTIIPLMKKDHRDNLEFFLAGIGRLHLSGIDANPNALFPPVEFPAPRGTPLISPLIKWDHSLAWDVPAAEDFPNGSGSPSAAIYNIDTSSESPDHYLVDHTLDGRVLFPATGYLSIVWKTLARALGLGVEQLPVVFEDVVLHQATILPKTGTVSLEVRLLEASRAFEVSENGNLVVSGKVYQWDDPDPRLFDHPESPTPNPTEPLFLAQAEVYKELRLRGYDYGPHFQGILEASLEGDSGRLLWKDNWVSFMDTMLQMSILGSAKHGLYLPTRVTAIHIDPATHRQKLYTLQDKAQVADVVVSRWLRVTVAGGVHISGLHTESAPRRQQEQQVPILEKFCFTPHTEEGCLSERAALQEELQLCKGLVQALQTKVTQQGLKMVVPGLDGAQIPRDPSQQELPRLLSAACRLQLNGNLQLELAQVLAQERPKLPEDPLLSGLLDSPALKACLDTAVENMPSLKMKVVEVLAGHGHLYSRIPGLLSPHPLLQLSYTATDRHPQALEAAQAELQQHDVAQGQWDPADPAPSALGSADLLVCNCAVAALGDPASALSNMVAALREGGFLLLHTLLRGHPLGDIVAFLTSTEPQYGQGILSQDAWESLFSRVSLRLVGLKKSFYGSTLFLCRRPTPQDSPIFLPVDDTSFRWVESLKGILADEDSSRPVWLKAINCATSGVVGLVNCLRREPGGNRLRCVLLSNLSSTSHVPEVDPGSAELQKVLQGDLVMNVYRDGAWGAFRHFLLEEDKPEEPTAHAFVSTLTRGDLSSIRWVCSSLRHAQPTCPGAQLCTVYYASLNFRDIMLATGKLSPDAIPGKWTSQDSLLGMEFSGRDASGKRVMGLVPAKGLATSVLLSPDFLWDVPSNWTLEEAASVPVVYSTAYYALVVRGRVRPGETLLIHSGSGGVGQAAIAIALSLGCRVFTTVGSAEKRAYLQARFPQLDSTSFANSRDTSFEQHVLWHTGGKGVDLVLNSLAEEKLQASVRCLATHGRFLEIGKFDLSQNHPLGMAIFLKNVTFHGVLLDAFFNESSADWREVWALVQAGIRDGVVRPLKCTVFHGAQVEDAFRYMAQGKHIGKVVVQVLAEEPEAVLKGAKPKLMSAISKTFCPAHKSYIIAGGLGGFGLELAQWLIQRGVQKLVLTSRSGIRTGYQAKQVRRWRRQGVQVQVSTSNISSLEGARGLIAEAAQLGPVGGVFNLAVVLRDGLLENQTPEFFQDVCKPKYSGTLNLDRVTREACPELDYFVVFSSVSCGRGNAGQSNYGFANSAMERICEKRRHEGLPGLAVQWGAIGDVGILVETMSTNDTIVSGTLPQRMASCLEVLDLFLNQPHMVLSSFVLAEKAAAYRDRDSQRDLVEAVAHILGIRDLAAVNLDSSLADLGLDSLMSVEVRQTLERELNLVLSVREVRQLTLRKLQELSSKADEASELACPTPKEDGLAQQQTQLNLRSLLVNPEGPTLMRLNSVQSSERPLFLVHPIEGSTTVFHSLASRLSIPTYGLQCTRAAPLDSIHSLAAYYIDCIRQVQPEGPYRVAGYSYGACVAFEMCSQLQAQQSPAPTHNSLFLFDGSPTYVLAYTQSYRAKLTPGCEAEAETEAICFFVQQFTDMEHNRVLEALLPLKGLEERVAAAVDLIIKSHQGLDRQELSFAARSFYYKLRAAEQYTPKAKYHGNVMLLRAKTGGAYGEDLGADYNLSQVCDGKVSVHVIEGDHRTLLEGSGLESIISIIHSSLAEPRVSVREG
# T1 sequence (P49327 whole entry): as the sequence (P49327 whole entry, the tested form may be a part) above
compound,measurement,setting,value
"COc1ccc(C(=O)Nc2cc(C(=O)N3CC(c4ccc(-c5cnn(C)c5)cc4)C3)ccc2C)cc1 [Compound #83, 4-methoxy-N-(2-methyl-5-(3-(4-(1-methyl-1H-pyrazol-4-yl)phenyl)azetidine-1-carbonyl)phenyl)benzamide]",IC50,[1],16.2 nM
same,inhibition at 10 µM,[1],109%
same,IC50,[2],45.7 nM
same,IC50,A2780 ovarian cells [3],74.1 nM
same,IC50,A2780 ovarian cells [4],> 10000 nM
"Cc1ccc(C(=O)N2CCC(c3ccc(-c4cnn(C)c4)cc3)CC2)cc1NC(=O)C1CC1 [Compound #89, N-(2-methyl-5-(4-(4-(1-methyl-1H-pyrazol-4-yl)phenyl)piperidine-1-carbonyl)phenyl)cyclopropanecarboxamide]",IC50,[1],20.4 nM
same,inhibition at 10 µM,[1],103%
same,IC50,[2],66.1 nM
same,IC50,A2780 ovarian cells [3],151 nM
same,IC50,A2780 ovarian cells [4],> 10000 nM
"Cc1ccc(C(=O)N2CCC(c3ccc(-c4cnn(C)c4)cc3)CC2)cc1NC(=O)c1ccc(N2CCOCC2)nc1 [Compound #91, N-(2-methyl-5-(4-(4-(1-methyl-1H-pyrazol-4-yl)phenyl)piperidine-1-carbonyl)phenyl)-6-morpholinonicotinamide]",IC50,[1],11.2 nM
same,inhibition at 10 µM,[1],109%
same,IC50,[2],25.1 nM
same,IC50,A2780 ovarian cells [3],15.8 nM
same,IC50,A2780 ovarian cells [4],> 10000 nM
"Cc1ccc(C(=O)N2CCC(c3ccc(-c4cnn(C)c4)cc3)CC2)cc1NC(=O)c1ccc(Cl)cc1 [Compound #100, 4-chloro-N-(2-methyl-5-(4-(4-(1-methyl-1H-pyrazol-4-yl)phenyl)piperidine-1-carbonyl)phenyl)benzamide]",IC50,[1],16.2 nM
same,inhibition at 10 µM,[1],111%
same,IC50,[2],44.7 nM
same,IC50,A2780 ovarian cells [3],93.3 nM
same,IC50,A2780 ovarian cells [4],> 10000 nM
"Cc1ccc(C(=O)N2CCC(c3ccc(-c4cnn(C)c4)cc3)CC2)cc1NC(=O)c1ccc(N2CCN(C)CC2)nc1 [Compound #112, N-(2-Methyl-5-(4-(4-(1-methyl-1H-pyrazol-4-yl)phenyl)piperidine-1-carbonyl)phenyl)-6-(4-methylpiperazin-1-yl)nicotinamide]",IC50,[1],11.5 nM
same,inhibition at 10 µM,[1],104%
same,IC50,[2],66.1 nM
same,IC50,A2780 ovarian cells [3],30.2 nM
same,IC50,A2780 ovarian cells [4],2690 nM
"Cc1ccc(C(=O)N2CCC(c3ccc(-c4cnn(C)c4)cc3)CC2)cc1NC(=O)C1CCN(C(C)C)CC1 [Compound #182, 1-isopropyl-N-(2-methyl-5-(4-(4-(1-methyl-1H-pyrazol-4-yl)phenyl)piperidine-1-carbonyl)phenyl)piperidine-4-carboxamide]",IC50,[1],27.5 nM
same,inhibition at 10 µM,[1],111%
same,IC50,[2],112 nM
same,IC50,A2780 ovarian cells [3],45.7 nM
same,IC50,A2780 ovarian cells [4],> 10000 nM
"COc1ccc(C(=O)N2CCC(c3ccc(-c4cnn(C)c4)cc3)CC2)cc1NC(=O)c1ccc(NC(C)C)nc1 [Compound #251, 6-(isopropylamino)-N-(2-methoxy-5-(4-(4-(1-methyl-1H-pyrazol-4-yl)phenyl)piperidine-1-carbonyl)phenyl)nicotinamide]",IC50,[1],28.8 nM
same,inhibition at 10 µM,[1],112%
same,IC50,[2],115 nM
same,IC50,A2780 ovarian cells [3],41.7 nM
same,IC50,A2780 ovarian cells [4],2400 nM
"CCc1ccc(C(=O)N2CCC(c3ccc(-c4cnn(C)c4)cc3)CC2)cc1NC(=O)c1ccc(Cl)nc1 [Compound #255, 6-chloro-N-(2-ethyl-5-(4-(4-(1-methyl-1H-pyrazol-4-yl)phenyl)piperidine-1-carbonyl)phenyl)nicotinamide]",IC50,[1],24 nM
same,inhibition at 10 µM,[1],113%
same,IC50,[2],72.4 nM
same,IC50,A2780 ovarian cells [3],39.8 nM
same,IC50,A2780 ovarian cells [4],> 10000 nM
"CCc1ccc(C(=O)N2CCC(c3ccc(-c4cnn(C)c4)cc3)CC2)cc1NC(=O)c1ccc(NC(C)C)nc1 [Compound #256, N-(2-ethyl-5-(4-(4-(1-methyl-1H-pyrazol-4-yl)phenyl)piperidine-1-carbonyl)phenyl)-6-(isopropylamino)nicotinamide]",IC50,[1],25.7 nM
same,inhibition at 10 µM,[1],116%
same,IC50,[2],60.3 nM
same,IC50,A2780 ovarian cells [3],8.91 nM
same,IC50,A2780 ovarian cells [4],6310 nM
"CN(C)c1ccc(C(=O)N2CCC(c3ccc(-c4cnn(C)c4)cc3)CC2)cc1NC(=O)C1CC1 [Compound #273, N-(2-(dimethylamino)-5-(4-(4-(1-methyl-1H-pyrazol-4-yl)phenyl)piperidine-1-carbonyl)phenyl)cyclopropanecarboxamide]",inhibition at 10 µM,[1],98%
same,IC50,A2780 ovarian cells [3],182 nM
same,IC50,A2780 ovarian cells [4],> 10000 nM
same,IC50,[5],2190 nM
same,IC50,[6],0.269 µM
